Source: patent US12595243B2, “Modulators of extracellular signal-regulated kinase” (GEN1E LIFESCIENCES INC., priority 2023, dated 2026)
Like-named read-outs stand apart in the source and are kept apart here.

Tests used:
[1] = tested on: glioblastoma cell line U87; assay: Cytotoxicity in cancer cell lines (CellTiter-Glo), U87; format: cell-based
From the text: (§1) All cells were obtained from ATCC. […] Normocin® was obtained from InvivoGen. FBS was obtained from Gibco. […] All test compounds were synthesized as described herein.

[2] = tested on: melanoma cell line Sk-Mel-28; assay: Cytotoxicity in cancer cell lines (CellTiter-Glo), Sk-Mel-28; format: cell-based
From the text: as §1

[3] = tested on: immortalized human T lymphocyte Jurkat cells; assay: Cytotoxicity in cancer cell lines (CellTiter-Glo), Jurkat; format: cell-based
From the text: as §1

[4] = tested on: melanoma cell line RPMI-7951; assay: Cytotoxicity in cancer cell lines (CellTiter-Glo), RPMI-7951; format: cell-based; conditions: Homo sapiens
From the text: as §1

melanoma cell line A375 = assay: Cytotoxicity in cancer cell lines (CellTiter-Glo), A375; conditions: A375 cells, mean of three tests
Method: (§2) The cytotoxicity of test compounds was determined for several cell lines including melanoma cell line RPMI-7951, melanoma cell line Sk-Mel-28, melanoma cell line A375, melanoma cell line U87, glioblastoma cell line U87, immortalized human T lymphocyte Jurkat cells, and human pancreatic carcinoma cell line PL-45.
(§3) All cells were obtained from ATCC. RPMI, DMEM, EMEM and pen/strep were obtained from Invitrogen. Normocin® was obtained from InvivoGen. FBS was obtained from Gibco. Cell viability reagent Cell-titer glow was obtained from Promega.
(§4) The growth media for A375 and PL45 cells was DMEM supplemented with antibiotic/anti-mycotic pen/strep and Normocin® (InvivoGen) and 10% FBS.
(§5) Ten (10) mM solutions of each of the test compounds were prepared in dimethyl sulfoxide (DMSO) and serially diluted in DMSO to provide solutions having concentrations of the test compound of 3 mM, 1 mM, 0.3 mM, 0.1 mM, 0.03 mM, or 0.01 mM. Forty (40) μL of each of the solutions were further diluted to 400 μL in the cell specific complete media to provide 10× stock solutions having a 1 mM, 300 μM, 100 μM, 30 μM, 10 μM, 3 μM, 1 μM, or 0.3 μM of the test compound. Ten (10) μL of DMSO was diluted to 400 μL in the complete media and used as the 0 μM control.
(§6) For the cytotoxicity studies, all cells were grown in their respective complete media. Confluent cells were harvested and plated into two 96-well tissue culture treated plates at 5,000-8,000 cells/wells in 180 μL media. Twenty (20) μL of each of the 10× stock solutions were added to the wells and mixed.
(§7) After incubating for 24 h, media was aspirated out and replaced with 180 μL/well of the fresh media and 20 μL/well of the 10× stock solutions in duplicate wells in duplicate plates (Plates 1 and 2; and 3 and 4) and in quadruplicate wells (Plate 5) were added, mixed and cultured for 48 hours. The final concentrations of each test compound were 100 μM, 30 μM, 10 μM, 3 μM, 1 μM, 0.3 μM, 0.1 μM and 0 μM.
(§8) After 48 hours and/or 72 hours following addition of the test compounds, one plate each was removed from the incubator, the media aspirated out, 100 μL of CellTiter-Glo® reagent added to each well, and the resulting luminescent signals measured using a VICTOR-2® plate reader.
(§9) The data from the plate reader were exported to GraphPad (Prism) and data processed using non-linear regression and EC50 value determined.

[5] = tested on: human pancreatic carcinoma cell line PL-45; assay: Cytotoxicity in cancer cell lines (CellTiter-Glo), PL-45; conditions: PL45, 48 h, read-out: Cytotoxicity EC50 at 48 hours, PL-45
Method: as §2, §3, §4, §5, §6, §7, §8, §9

[6] = Homo sapiens, U-87 MG, 48 h; U87 cells; mean of three tests; read-out: Cytotoxicity EC50 at 48 hours, U87
[7] = Homo sapiens, SK-MEL-28, 48 h, 48 h, Sk-Mel-28 cells, mean of three tests, read-out: Cytotoxicity EC50 at 48 hours, Sk mel
[8] = 48 h, Jurkat cells, mean of three tests, read-out: Cytotoxicity EC50 at 48 hours, Jurkat
[9] = RPMI-7951, 48 h, read-out: Cytotoxicity EC50 at 48 hours, RPMI
[10] = Homo sapiens, A-375, 48 h, read-out: Cytotoxicity EC50 at 48 hours, A375, 48 h
[11] = Homo sapiens, U-87 MG, 72 h; U87 cells; mean of three tests; read-out: Cytotoxicity EC50 at 72 hours, U87
[12] = Homo sapiens, SK-MEL-28, 72 h, 72 h, Sk-Mel-28 cells, mean of three tests, read-out: Cytotoxicity EC50 at 72 hours, Sk mel
[13] = 72 h, Jurkat cells, mean of three tests, read-out: Cytotoxicity EC50 at 72 hours, Jurkat
[14] = RPMI-7951, 72 h, read-out: Cytotoxicity EC50 at 72 hours, RPMI
[15] = Homo sapiens, A-375, 72 h, read-out: Cytotoxicity EC50 at 72 hours, A375, 72 h
[16] = Homo sapiens, SK-MEL-28, 48 h, read-out: Cytotoxicity EC50 at 48 hours, Sk mel
[17] = Homo sapiens, SK-MEL-28, 72 h, read-out: Cytotoxicity EC50 at 72 hours, Sk mel
[18] = Homo sapiens, U-87 MG, 48 h, read-out: Cytotoxicity EC50 at 48 hours, U87
[19] = Homo sapiens, U-87 MG, 72 h, read-out: Cytotoxicity EC50 at 72 hours, U87
[20] = Jurkat, 48 h, read-out: Cytotoxicity EC50 at 48 hours, Jurkat
[21] = Jurkat, 72 h, read-out: Cytotoxicity EC50 at 72 hours, Jurkat

Row | Compound | EC50 [1, 6] [µM] | EC50 [2, 7] [µM] | EC50 [3, 8] [µM] | EC50 [4, 9] [µM] | EC50 (melanoma cell line A375; [10]) [µM] | EC50 [4, 14] [µM] | EC50 (melanoma cell line A375; [15]) [µM] | EC50 [5] [µM] | also measured
1 | CN(C1C=CS(=O)(=O)C1)S(=O)(=O)c1ccc2ccccc2c1 (stereo not shown) [(2), N-(1,1-dioxido-2,3-dihydrothiophen-3-yl)-N-methylnaphthalene-2-sulfonamide] | > 100 | > 100 | 53 | 85 | > 100 | – | – | – | –
2 | O=S1(=O)C=CC(NS(=O)(=O)c2ccc3ccccc3c2)C1 (stereo not shown) [(3), N-(1,1-dioxido-2,3-dihydrothiophen-3-yl)naphthalene-2-sulfonamide] | 100 | > 100 | 6 | 19 | 14 | – | – | – | –
3 | O=S1(=O)C=CC(OCc2ccc3ccccc3c2)C1 (stereo not shown) [(4), 3-(naphthalen-2-ylmethoxy)-2,3-dihydrothiophene 1,1-dioxide] | > 100 | 78 | 7 | 44 | 19 | 26 | 5 | – | EC50 [1, 11]: 53 µM; EC50 [2, 12]: 42 µM; EC50 [3, 13]: 4 µM
4 | O=S1(=O)C=CC(OCc2ccc(-c3ccccc3)cc2)C1 (stereo not shown) [(5), 3-([1,1′-biphenyl]-4-ylmethoxy)-2,3-dihydrothiophene 1,1-dioxide] | > 100 | > 100 | 6 | 72 | 80 | 86 | 75 | – | EC50 [1, 11]: > 100 µM; EC50 [2, 12]: > 100 µM; EC50 [3, 13]: 2 µM
5 | O=S1(=O)C=CC(OCc2ccc(Oc3ccccc3)cc2)C1 (stereo not shown) [(6), 3-((4-phenoxybenzyl)oxy)-2,3-dihydrothiophene 1,1-dioxide] | > 100 | 69 | > 100 | 40 | 24 | 24 | 19 | – | EC50 [1, 11]: 46 µM; EC50 [2, 12]: 48 µM; EC50 [3, 13]: > 100 µM
6 | O=S1(=O)C=CC(OCCc2ccc3ccccc3c2)C1 (stereo not shown) [(7), 3-(2-(naphthalen-2-yl)ethoxy)-2,3-dihydrothiophene 1,1-dioxide] | – | 95 | 10 | 19 | 29 | – | – | – | –
7 | O=C(COC1C=CS(=O)(=O)C1)c1ccc2ccccc2c1 (stereo not shown) [(8), 2-((1,1-dioxido-2,3-dihydrothiophen-3-yl)oxy)-1-(naphthalen-2-yl)ethan-1-one] | – | – | 0.5 | 20 | 11 | 16 | 46 | – | EC50 ([1]; Homo sapiens, U-87 MG; 48 h; U87 cells; mean of three tests; read-out: Cytotoxicity EC50 at 48 hours, U87): > 100 µM; EC50 ([1]; Homo sapiens, U-87 MG; 72 h; U87 cells; mean of three tests; read-out: Cytotoxicity EC50 at 72 hours, U87): 37 µM; EC50 [2, 16]: > 100 µM; EC50 [2, 17]: 77 µM; EC50 [3, 13]: 0.5 µM
8 | O=C(COC1C=CS(=O)(=O)C1)c1ccc(-c2ccccc2)cc1 (stereo not shown) [(9), 1-([1,1′-biphenyl]-4-yl)-2-((1,1-dioxido-2,3-dihydrothiophen-3-yl)oxy)ethan-1-one] | – | – | – | 11 | 19 | 10 | 47 | – | EC50 [1, 18]: 32 µM; EC50 [1, 19]: 28 µM; EC50 [2, 16]: 71 µM; EC50 [2, 17]: 12 µM; EC50 [3, 20]: 22 µM; EC50 [3, 21]: 9 µM
9 | O=C(Nc1ccc2ccccc2c1)OC1C=CS(=O)(=O)C1 (stereo not shown) [(10), 1,1-dioxido-2,3-dihydrothiophen-3-yl naphthalen-2-ylcarbamate] | – | – | – | 39 | 31 | 28 | 46 | – | EC50 [1, 18]: > 100 µM; EC50 [1, 19]: 31 µM; EC50 [2, 16]: 38 µM; EC50 [2, 17]: 25 µM; EC50 [3, 20]: > 100 µM; EC50 [3, 21]: 8 µM
10 | O=C(Nc1ccc(-c2ccccc2)cc1)OC1C=CS(=O)(=O)C1 (stereo not shown) [(11), 1,1-dioxido-2,3-dihydrothiophen-3-yl [1,1′-biphenyl]-4-ylcarbamate] | – | – | – | 25 | – | 12 | 97 | – | EC50 [1, 18]: 3 µM; EC50 [2, 16]: 66 µM; EC50 [2, 17]: 62 µM; EC50 [3, 20]: 10 µM
11 | O=C(Nc1ccc2ccccc2c1)NC1C=CS(=O)(=O)C1 (stereo not shown) [(12), 1-(1,1-dioxido-2,3-dihydrothiophen-3-yl)-3-(naphthalen-2-yl)urea] | – | – | – | 100 | > 100 | – | – | – | EC50 [1, 18]: > 100 µM; EC50 [2, 16]: > 100 µM; EC50 [3, 20]: > 100 µM
12 | O=C(Nc1ccc(-c2ccccc2)cc1)NC1C=CS(=O)(=O)C1 (stereo not shown) [(13), 1-([1,1′-biphenyl]-4-yl)-3-(1,1-dioxido-2,3-dihydrothiophen-3-yl)urea] | 1 | > 100 | 86 | > 100 | > 100 | – | – | – | –
13 | O=C(NC1C=CS(=O)(=O)C1)c1ccc2ccccc2c1 (stereo not shown) [(14), N-(1,1-dioxido-2,3-dihydrothiophen-3-yl)-2-naphthamide] | > 100 | > 100 | 10 | 12 | 86 | 9.4 | 70 | – | EC50 [2, 12]: 100 µM
14 | O=C(Cc1ccc2ccccc2c1)NC1C=CS(=O)(=O)C1 (stereo not shown) [(15), N-(1,1-dioxido-2,3-dihydrothiophen-3-yl)-2-(naphthalen-2-yl)acetamide] | 100 | 73 | 26 | 36 | 42 | – | – | – | –
15 | CN(C1CCS(=O)(=O)C1)S(=O)(=O)c1ccc2ccccc2c1 (stereo not shown) [(16)] | > 100 | > 100 | 9 | > 100 | > 100 | > 100 | 100 | – | EC50 [1, 11]: > 100 µM; EC50 [2, 12]: > 100 µM; EC50 [3, 13]: 8 µM
16 | CN(C1=CS(=O)(=O)CC1)S(=O)(=O)c1ccc2ccccc2c1 [(19), N-(1,1-dioxido-4,5-dihydrothiophen-3-yl)-N-methylnaphthalene-2-sulfonamide] | > 100 | 82 | > 100 | > 100 | > 100 | – | – | – | EC50 ([2]; 48 h, Sk-Mel-28 cells, mean of three tests, read-out: Cytotoxicity EC50 at 48 hours, Sk mel): > 100 µM
17 | CN(C1=CCS(=O)(=O)C1)S(=O)(=O)c1ccc2ccccc2c1 [(20), N-(1,1-dioxido-2,5-dihydrothiophen-3-yl)-N-methylnaphthalene-2-sulfonamide] | > 100 | > 100 | > 100 | > 100 | > 100 | – | – | – | –
18 | O=C(OC1C=CS(=O)(=O)C1)c1ccc(Oc2ccccc2)cc1 (stereo not shown) [(23), 1,1-Dioxido-2,3-dihydrothiophen-3-yl 4-phenoxybenzoate] | – | – | – | – | 23 | – | – | 8.3 | –
19 | O=C(OC1C=CS(=O)(=O)C1)c1ccc(-c2ccccc2)cc1 (stereo not shown) [(24), 1,1-dioxido-2,3-dihydrothiophen-3-yl [1,1′-biphenyl]-4-carboxylate] | – | – | – | – | > 100 | – | – | 49 | –
20 | O=S1(=O)C=CC(OS(=O)(=O)c2cccc(Oc3ccccc3)c2)C1 (stereo not shown) [(25), 1,1-dioxido-2,3-dihydrothiophen-3-yl 3-phenoxybenzenesulfonate] | – | – | – | – | 6 | – | – | 0.9 | –
21 | O=S1(=O)C=CC(OS(=O)(=O)c2cccc(-c3ccccc3)c2)C1 (stereo not shown) [(26), 1,1-dioxido-2,3-dihydrothiophen-3-yl [1,1′-biphenyl]-3-sulfonate] | – | – | – | – | 7 | – | – | 1 | –
22 | O=S1(=O)C=CC(OS(=O)(=O)c2ccc(Cc3ccccc3)cc2)C1 (stereo not shown) [(28), 1,1-dioxido-2,3-dihydrothiophen-3-yl 4-benzylbenzenesulfonate] | – | – | – | – | 14 | – | – | 0.9 | –
23 | O=S1(=O)C=CC(OS(=O)(=O)c2ccc(COc3ccccc3)cc2)C1 (stereo not shown) [(29), 1,1-dioxido-2,3-dihydrothiophen-3-yl 4-(phenoxymethyl)benzenesulfonate] | – | – | – | – | 10 | – | – | 1 | –
24 | COS(=O)(=O)c1ccc2ccccc2c1 [(30), methyl naphthalene-2-sulfonate] | – | – | – | – | > 100 | – | – | 8.8 | –
25 | CCOS(=O)(=O)c1ccc2ccccc2c1 [(31), ethyl naphthalene-2-sulfonate] | – | – | – | – | > 100 | – | – | – | –
26 | CC(C)OS(=O)(=O)c1ccc2ccccc2c1 [(32), isopropyl naphthalene-2-sulfonate] | – | – | – | – | > 100 | – | – | – | –
27 | O=S1(=O)C=CC(OS(=O)(=O)c2ccc(-c3ccccc3)cc2)C1 (stereo not shown) [(33), 1,1-dioxido-2,3-dihydrothiophen-3-yl [1,1′-biphenyl]-4-sulfonate] | – | – | – | – | – | – | – | 2.3 | EC50 (melanoma cell line A375; read-out: Cytotoxicity EC50 at 48 hours, A375, 48 h): 1 µM
28 | O=S1(=O)C=CC(OS(=O)(=O)c2ccc(C3CCCCC3)cc2)C1 (stereo not shown) [(34), 1,1-dioxido-2,3-dihydrothiophen-3-yl 4-cyclohexylbenzenesulfonate] | – | – | – | – | 1.5 | – | – | 0.9 | –
